Experimental data as given in patent publication US5504213A, “Benzofuranyl-and-thiophenyl-alkanecarboxyclic acid derivatives” (Bayer Aktiengesellschaft, priority 1993, dated 1996).

Key:
PMN cyclic AMP = test: Measurement of PMN cyclic AMP concentration (human PMN, FMLP-stimulated); type: cell-based; settings: 4×10^-8 M FMLP, control 100, expressed as percentage of vehicle control, read-out: % elevation of cAMP at 1 μM (control 100)
Method: 1. Preparation of human PMN
Blood was taken from healthy subjects by venous puncture and neutrophils were purified by dextran sedimentation and resuspended in the buffered medium.
3. Measurement of PMN cyclic AMP concentration
The compounds according to the invention were incubated with 3.7×10^6 PMN for 5 min at 37° C. before addition of 4×10^-8 M FMLP. After 6 min protein was precipitated by the addition of 1% v/v conc. HCl in 96% v/v ethanol containing 0.1 mM EDTA. After centrifugation the ethanolic extracts were evaporated to dryness under N2 and resuspended in 50 mM Tris/HCl pH 7.4 containing 4 mM EDTA. The cyclic AMP concentration in the extracts was determined using a cyclic AMP binding protein assay supplied by Amersham International plc. Cyclic AMP concentrations were expressed as percentage of vehicle containing control incubations.

[1] = test system: FMLP-induced skin oedama of guinea pigs; test: Effect of intravenously administered compounds on the FMLP-induced skin oedema of guinea pigs; type: in vivo; settings: guinea pig, 1 mg/kg
Method: 5. Effect of intravenously administered compounds on the FMLP-induced skin oedama of guinea pigs.
Guinea-pigs (600-800 g) were anaesthetized with pentobarbitone sodium (40 mg/kg, i.p.) and injected (i.V.) with a 0.5 ml mixture of pentamine sky blue (5% W/V) and ^125 I-HSA ([…]). 10 minutes later 3 intradermal injections of FMLP (10 μg/site), 1 injection of histamine (1 μg/site) and 1 injection of vehicle (100 μl of 0.2% DMSO V/V in Hanks Buffered salt solution) were made on the left hand side of the animal (preinjection sites). 5 minutes later the drug (1 ml/kg) or the vehicle (50% PEG 400 V/V in distilled water, 1 ml/kg) was administered (i.V.). 10 minutes later an identical pattern of intradermal injections was made on the opposite flank of the animal (post-injection sites). These responses were allowed to develop for 15 minutes before the animal was sacrificed and a blood sample taken.
Skin sites and plasma samples were counted for 1 minute on a gamma counter and the degree of oedema calculated as μl plasma/skin site. Statistical analysis was done by a paired t-test on the mean of the 3 pre-injection site values of μl plasma obtained for FMLP/animal. The percentage inhibition of drug or vehicle was calculated as follows [formula]

[2] = test system: FMLP-induced skin oedema of guinea-pigs; test: Effect of orally administered compounds on the FMLP-induced skin oedema of guinea-pigs in vivo; settings: guinea pig, 25 mg/kg
Method: 6. Effect of orally administered compounds on the FMLP-induced skin oedema
of guinea-pigs in vivo-Test's p.o.
Guinea-pits (600-800 g) were fasted overnight and orally treated with vehicle ([…]; […]) 40 minutes later the animals were anasthetized with pentobarbitone sodium (40 mg/kg; i.p.) and 0.6 ml of a mixture of pontamine sky blue (5% w/v) and ^125 I-HSA (1 μci/animal) was injected (i.V.). 90 minutes after oral pretreatment FMLP (50 μg/site) was injected (i.d.) at 4 different sites, histamine (1 μg/site) and vehicle (100 μl, 1% DMSO v/v in Hanks buffered salt solution) were both injected (i.d.) at 2 different sites.
The responses were allowed to develop for 30 minutes before the animal was sacrificed and a blood sample taken.
Skin sites and plasma samples were counted for 1 minute on a gamma counter. The degree of oedema was calculated as μl plasma/skin site.
Statistical analysis was carried out by a Mann-Whitney U-test on the mean of the 4 values of μl Plasma obtained for FMLP/animal.

SMILES: COC(=O)CCc1c(C(=O)c2ccc(Cl)cc2)oc2cc(O)ccc12 [Example 30]
- activity at 1 µM (PMN cyclic AMP): 394%
- % inhibition (FMLP-induced skin oedema, i.v.) [1]: 40.0%
- % inhibition (FMLP-induced skin oedema, p.o.) [2]: 46%
